Measurements: patent US4605744A, “Imidazole derivatives” (Hoffmann-La Roche Inc., priority 1985, dated 1986)
Counter-ions that a name gives are not always drawn. Like-named read-outs stand apart in the source and are kept apart here.

How the values were obtained:
P. aeruginosa 6719 = assay: In vivo antibacterial activity (PD50); settings: Pseudomonas aeruginosa, 6719, sc
P. aeruginosa 503-56 = assay: In vivo antibacterial activity (PD50); settings: Pseudomonas aeruginosa, 50356, sc
E. aerogenes 8 = assay: In vivo antibacterial activity (PD50)
E. coli 5152 = assay: In vivo antibacterial activity (PD50); settings: Escherichia coli, 5152, sc
E. cloacae 4633 = assay: In vivo activity alone and in combination (PD50, FIC); settings: Enterobacter cloacae, 4633; sc; alone; read-out: PD50 (alone)
K. pneumoniae 39 = assay: as above; settings: Klebsiella pneumoniae, 39, sc, alone
E. coli BC5524 = assay: as above; settings: Escherichia coli, BC5524; sc; alone; read-out: PD50 (alone)
E. cloacae 6951 = assay: In vivo antibacterial activity (PD50); settings: Enterobacter cloacae, 6951, sc, 2 treatments
P. aeruginosa 6148B = assay: In vivo antibacterial activity (PD50); settings: Pseudomonas aeruginosa, sc
K. pneumoniae 8357 = assay: animal or person; format: in vivo; settings: Klebsiella pneumoniae, 8357, sc, read-out: PD50
P. vulgaris 100 = assay: In vivo antibacterial activity (PD50); settings: Proteus vulgaris; sc; challenge 100 LD50s; 1 treatment; Table 11
P. mirabilis 190 = assay: In vivo antibacterial activity (PD50); settings: Proteus mirabilis, sc, challenge 10^4 LD50s, 1 treatment, Table 11
S. marcescens S3 = assay: In vivo antibacterial activity (PD50); settings: Serratia marcescens, S3, sc, read-out: PD50
E. coli 387-1 = assay: In vivo antibacterial activity (PD50); settings: Escherichia coli, 3871; sc; challenge 127 LD50s; 1 treatment; Table 11
E. cloacae 214 = assay: In vivo antibacterial activity (PD50); settings: Enterobacter cloacae, sc, challenge 3.8 LD50s, 2 treatments, Table 11
Method: (§1) In Tables 9-14, the results of the in vivo activity against certain microorganisms of compounds I, M and N as given. […] The results in these Tables and the PD50 's were determined by the procedure set forth on page 160 in Beskid et al., Antimicrobial Agents and Chemotherapy, Vol. 20, No. 2 pp. 159-167 (Aug. 1981) for "in vivo studies".

S. schottmuelleri = assay: In vivo antibacterial activity (PD50); settings: sc; challenge 163 LD50s; 1 treatment; Table 11
Method: as §1

S. pneumoniae SC = assay: In vivo antibacterial activity (PD50); settings: Streptococcus pneumoniae
S. pneumoniae 6301 = assay: In vivo antibacterial activity (PD50); settings: Streptococcus pneumoniae, sc, Table 9
C. freundii 8ASM = assay: In vivo antibacterial activity (PD50); settings: Citrobacter freundii, sc, challenge 1000 LD50s, 1 treatment, Table 11
S. aureus Giorgio = assay: In vivo antibacterial activity (PD50); settings: Staphylococcus aureus; sc; Table 9
S. pyogenes 503-782 = assay: In vivo antibacterial activity (PD50); settings: Streptococcus pyogenes, 503782; sc; Table 9
E. aerogenes 83 = assay: In vivo antibacterial activity (PD50); settings: Klebsiella aerogenes, sc, Table 9
P. aeruginosa POW151 = assay: In vivo antibacterial activity (PD50); settings: Pseudomonas aeruginosa, sc, Table 9
S. marcescens S5 = assay: In vivo antibacterial activity (PD50); settings: Serratia marcescens, sc, Table 9
E. coli 4 = assay: In vivo antibacterial activity (PD50); settings: Escherichia coli, sc, Table 9
E. coli 736 = assay: In vivo activity alone and in combination (PD50, FIC); settings: Escherichia coli, sc, alone
[1] = challenge 4.7 LD50s, 2 treatments, Table 10
[2] = challenge 100 LD50s, 2 treatments, Table 10
[3] = challenge 2717 LD50s, 2 treatments, Table 10
[4] = challenge 2290 LD50s, 2 treatments, Table 11
[5] = challenge 50 LD50s, 2 treatments, Table 11
[6] = Klebsiella aerogenes, 8, sc, read-out: PD50, sc, challenge 10 LD50s, 2 treatments, Table 11
[7] = Klebsiella aerogenes, 8, sc, Table 9, read-out: PD50
[8] = challenge 4780 LD50s, 2 treatments, Table 11
[9] = challenge 32 LD50s, 2 treatments, Table 11

SMILES	ED50 (P. aeruginosa 503-56; [1]) [mg/kg]	ED50 (P. aeruginosa 503-56; [2]) [mg/kg]	ED50 (E. coli 5152; [3]) [mg/kg]	ED50 (E. cloacae 4633) [mg/kg]	ED50 (K. pneumoniae 39) [mg/kg]	ED50 (E. coli BC5524) [mg/kg]	ED50 (E. cloacae 6951; challenge 562 LD50s, Table 10) [mg/kg]	ED50 (K. pneumoniae 8357) [mg/kg]	ED50 (P. vulgaris 100) [mg/kg]	ED50 (P. mirabilis 190) [mg/kg]	ED50 (S. marcescens S3) [mg/kg]	ED50 (P. aeruginosa 6719; [4]) [mg/kg]	ED50 (P. aeruginosa 503-56; Table 9) [mg/kg]	ED50 (P. aeruginosa 503-56; [5]) [mg/kg]	ED50 (E. coli 387-1) [mg/kg]	ED50 (E. cloacae 214) [mg/kg]	ED50 (S. schottmuelleri) [mg/kg]	ED50 (S. pneumoniae 6301) [mg/kg]	ED50 (E. aerogenes 8; [6]) [mg/kg]	ED50 (E. aerogenes 8; [7]) [mg/kg]	also measured
CC1(C)S[C@@H]2[C@H](N=CN3CCC(CC4=NCCN4)CC3)C(=O)N2[C@H]1C(=O)O [M, [2S-(2alpha,5alpha,6beta)]-6-[[[4-[(4,5-dihydro-1H-imidazol-2-yl)methyl]-1-piperidinyl]methylene]amino]-3,3-dimethyl-7-oxo-4-thia-1-azabicyclo[3.2.0]heptane-2-carboxylic acid hydrochloride]	67	100	134	34	5	80	15														ED50 (P. aeruginosa 6719; challenge 2249 LD50s, 3 treatments, Table 10): 34 mg/kg; ED50 (E. aerogenes 8; Klebsiella aerogenes, 8, sc, read-out: PD50, sc, challenge 24 LD50s, 2 treatments, Table 10): 60 mg/kg; ED50 (P. aeruginosa 6148B; challenge 4.5 LD50s, 3 treatments, Table 10): < 20 mg/kg; ED50 (P. aeruginosa 6148B; challenge 33 LD50s, 3 treatments, Table 10): < 20 mg/kg
CC1(C)S[C@@H]2[C@H](/N=C/N3CCCCCC3)C(=O)N2[C@H]1C(=O)O [Amdinocillin, amdinocillin, reference compound]	> 250	> 250	84				18	6.7	45	117	2.7	< 20	> 250	> 250	< 0.2	< 10	0.25	192	167	> 250	ED50 (S. pneumoniae SC; Table 9, read-out: PD50): < 2 mg/kg; ED50 (E. coli 5152; Table 9): > 250 mg/kg; ED50 (E. coli 5152; [8]): 150 mg/kg; ED50 (C. freundii 8ASM): 0.76 mg/kg; ED50 (E. cloacae 6951; challenge 3162 LD50s, Table 11): 2.5 mg/kg; ED50 (S. aureus Giorgio): > 250 mg/kg; ED50 (S. pyogenes 503-782): 80 mg/kg; ED50 (P. aeruginosa 6148B; [9]): > 250 mg/kg; ED50 (E. aerogenes 83): > 250 mg/kg; ED50 (P. aeruginosa POW151): 143 mg/kg; ED50 (S. marcescens S5): > 250 mg/kg; ED50 (E. coli 4): 4.6 mg/kg
CC1(C)S[C@@H]2[C@H](N=CN3CCC(CCC4=NCCN4)CC3)C(=O)N2[C@H]1C(=O)O [N, [2S-(2alpha,5alpha,6beta)]-6-[[[4-[4,5-dihydro-1H-imidazol-2-yl)ethyl]-1-piperidinyl]methylene]amino]-3,3-dimethyl-7-oxo-4-thia-1-azabicyclo[3.2.0]heptane-2-carboxylic acid hydrochloride]				12	18	114		6.2	67	140	< 0.5	22		43	< 0.2	< 10	< 0.05		> 250		ED50 (E. coli 5152; [8]): 30 mg/kg; ED50 (C. freundii 8ASM): 0.22 mg/kg; ED50 (E. cloacae 6951; challenge 3162 LD50s, Table 11): < 2 mg/kg; ED50 (P. aeruginosa 6148B; [9]): 37 mg/kg
CC1(C)S[C@@H]2[C@H](N=CN3CCC(CCCn4ccnc4N)CC3)C(=O)N2[C@H]1C(=O)O [I, [2S-(2alpha,5alpha,6beta)]-6-[[[4-[3-(2-amino-1H-imidazol-1-yl)propyl]piperidinyl]methylene]amino]-3,3-dimethyl-7-oxo-4-thia-1-azabicyclo[3.2.0]hpetane-2-carboxylic acid hydrochloride]				6.4	115	> 250							> 250					> 250		> 250	ED50 (S. pneumoniae SC; read-out: PD50): 3.6 mg/kg; ED50 (E. coli 5152; Table 9): > 250 mg/kg; ED50 (E. coli 736): 0.05 mg/kg; ED50 (S. aureus Giorgio): > 250 mg/kg; ED50 (S. pyogenes 503-782): 59 mg/kg; ED50 (E. aerogenes 83): > 250 mg/kg; ED50 (P. aeruginosa POW151): 111 mg/kg; ED50 (S. marcescens S5): > 250 mg/kg; ED50 (E. coli 4): 1.9 mg/kg
